Among the test systems are A549 NSCLC; CCRF-CEM leukemia; EKVX NSCLC; M14 melanoma; NCI-H460 lung; OVCAR-8 ovarian; SF-268 CNS; SK-OV-3 ovarian; SN12C renal; CAKI-1 renal.
Holding throughout (assay): NCI tumour cell line growth inhibition, 48 h

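Cultured in 96-well plates, cells were exposed to test compound for 48 hours across five concentrations. GI50 marks 50% less growth. TGI: total growth inhibition.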 A value given as a limit tells only on which side of the number the result lay.

With `Cc1cccc2c1Oc1cc(Cl)ccc1C2NC(=O)CN(C)C` (configuration not stated), the TGI was more than 100 µM with A549 NSCLC; more than 100 µM with CCRF-CEM leukemia; more than 100 µM in the experiment on EKVX NSCLC; 51.8 µM with M14 melanoma; more than 100 µM in the experiment on NCI-H460 lung; more than 100 µM with OVCAR-8 ovarian. Further, the TGI with SF-268 CNS, in the experiment with SK-OV-3 ovarian and in the experiment with SN12C renal was more than 100 µM each time.
As to `COc1cc(-c2nc(SCC(=O)Nc3ccc(C(C)=O)cc3)[nH]c(=O)c2C#N)cc(OC)c1OC`, the GI50 was more than 100 µM in the experiment with A549 NSCLC; 31.6 µM with CCRF-CEM leukemia; more than 100 µM with EKVX NSCLC; 37.4 µM in the experiment on M14 melanoma; 39.1 µM in the experiment with NCI-H460 lung; 73.7 µM with OVCAR-8 ovarian. For the same compound, the values for the GI50 with SF-268 CNS, in the experiment on SK-OV-3 ovarian and in the experiment on SN12C renal were 68.7 µM, 38.6 µM and 70.2 µM, respectively. Further, the TGI in the experiment on A549 NSCLC, with CCRF-CEM leukemia, with EKVX NSCLC, with M14 melanoma, in the experiment on NCI-H460 lung and in the experiment on OVCAR-8 ovarian was more than 100 µM throughout. The TGI in the experiment with SF-268 CNS, with SK-OV-3 ovarian and in the experiment on SN12C renal was more than 100 µM each time.
Consider `N#CCC(=O)N/N=C1/C(=O)NC(=O)C(=O)C1c1nc2ccccc2s1` (configuration not stated), for which the TGI in the experiment with A549 NSCLC, with CAKI-1 renal, in the experiment on CCRF-CEM leukemia, with EKVX NSCLC, in the experiment with M14 melanoma and in the experiment on OVCAR-8 ovarian was more than 100 µM in each case. For the same compound, the TGI in the experiment on SF-268 CNS, in the experiment with SK-OV-3 ovarian and in the experiment with SN12C renal was more than 100 µM each time.
With `CC(F)(F)c1cc(F)ccc1-c1sc2cc(O)ccc2c1Oc1ccc(/C=C/C(=O)O)cc1`, the GI50 in the experiment on A549 NSCLC was 10.3 µM; in the experiment with CAKI-1 renal it was 6.26 µM; with CCRF-CEM leukemia it was 6.68 µM; in the experiment with EKVX NSCLC, 10.6 µM; in the experiment with M14 melanoma, 4.96 µM; in the experiment on NCI-H460 lung, 8.18 µM. For the same compound, the values for the GI50 in the experiment with OVCAR-8 ovarian, with SF-268 CNS and in the experiment on SN12C renal were 12.2 µM, 7.31 µM and 14 µM, respectively. Besides, the TGI in the experiment on A549 NSCLC was 29.9 µM; in the experiment with CAKI-1 renal it was 20.2 µM; with CCRF-CEM leukemia, 94.4 µM; in the experiment on EKVX NSCLC, 39.6 µM; with M14 melanoma, 25 µM; with NCI-H460 lung it was 23.5 µM. In addition, the TGI with OVCAR-8 ovarian came to 69.1 µM; in the experiment on SF-268 CNS, 24.1 µM; with SN12C renal, 46 µM.
For the compound `COc1ccc(/C=C/c2nc(=S)[nH][nH]2)cc1`, the TGI with A549 NSCLC, in the experiment with CAKI-1 renal, in the experiment with CCRF-CEM leukemia, in the experiment with EKVX NSCLC, in the experiment with M14 melanoma and with NCI-H460 lung was more than 100 µM in each case. In addition, the TGI with OVCAR-8 ovarian, in the experiment on SF-268 CNS and in the experiment on SN12C renal was more than 100 µM in each case.
For the compound `COC1(OC)CC2C(=O)N(Cc3ccccc3)C1CC2S(=O)(=O)c1ccccc1` (configuration not stated), the TGI in the experiment with A549 NSCLC, in the experiment on CCRF-CEM leukemia, with EKVX NSCLC, in the experiment on M14 melanoma, with NCI-H460 lung and with OVCAR-8 ovarian was more than 100 µM in each case. In addition, the TGI in the experiment with SK-OV-3 ovarian and with SN12C renal was more than 100 µM in each case.
For `CC1CCCN(CC(O)CN2CCCc3ccccc32)C1` (configuration not stated), the TGI with A549 NSCLC, in the experiment on CAKI-1 renal, with CCRF-CEM leukemia, in the experiment with EKVX NSCLC, in the experiment on M14 melanoma and with OVCAR-8 ovarian was more than 100 µM each time. Besides, the TGI with SF-268 CNS, with SK-OV-3 ovarian and in the experiment on SN12C renal was more than 100 µM throughout.
`O=C1/C(=C/c2ccc([N+](=O)[O-])s2)Oc2ccccc21`: the GI50 with A549 NSCLC was 1.66 µM; with CAKI-1 renal it was 2.2 µM; with CCRF-CEM leukemia, 0.282 µM; in the experiment with M14 melanoma, 1.17 µM; in the experiment with NCI-H460 lung it was 1.51 µM; with OVCAR-8 ovarian, 0.297 µM. For the same compound, the results for the GI50 in the experiment on SF-268 CNS, in the experiment on SK-OV-3 ovarian and in the experiment on SN12C renal were 0.367 µM, 2.13 µM and 1.23 µM, respectively. Besides, the TGI in the experiment with A549 NSCLC is 3.88 µM; in the experiment with CAKI-1 renal it was 5.22 µM; in the experiment on CCRF-CEM leukemia it was 0.874 µM; in the experiment on M14 melanoma it was 3.57 µM; with NCI-H460 lung, 3.53 µM; in the experiment with OVCAR-8 ovarian, 1.68 µM. Besides, the results for the TGI in the experiment with SF-268 CNS, with SK-OV-3 ovarian and in the experiment on SN12C renal were 1.5 µM, 5.19 µM and 3.04 µM, respectively.
Regarding `CCOC(=O)c1cc2cc(NC(=O)c3cc4cc([N+](=O)[O-])ccc4n3C)ccc2n1C`, the GI50 in the experiment on A549 NSCLC was 21.7 µM; with CAKI-1 renal, 30.9 µM; in the experiment on CCRF-CEM leukemia it was 7.94 µM; in the experiment with EKVX NSCLC, 20 µM; in the experiment with M14 melanoma it was 34.7 µM; in the experiment with NCI-H460 lung, 30.6 µM. For the same compound, the GI50 with OVCAR-8 ovarian is 49.5 µM; with SF-268 CNS, 49.1 µM; with SN12C renal, 16.3 µM. Also, the TGI in the experiment with A549 NSCLC is 55.6 µM; in the experiment with CAKI-1 renal, more than 100 µM; with CCRF-CEM leukemia, more than 100 µM; with EKVX NSCLC it was more than 100 µM; in the experiment on M14 melanoma, more than 100 µM; with NCI-H460 lung it was more than 100 µM. Moreover, the TGI was more than 100 µM in the experiment on OVCAR-8 ovarian, more than 100 µM with SF-268 CNS and 46.5 µM in the experiment on SN12C renal.
As for `COc1cc2nc(-c3ccc(-n4cncc4-c4ccc(N)cc4)cc3)sc2c(OC)c1OC`, the GI50 with A549 NSCLC is 3.14 µM; in the experiment with CAKI-1 renal it was 1.41 µM; in the experiment with EKVX NSCLC it was 2.49 µM; in the experiment on M14 melanoma it was 2.1 µM; with NCI-H460 lung, 5.13 µM; with OVCAR-8 ovarian, 4.23 µM. The GI50 was 12.3 µM in the experiment on SF-268 CNS, 11.7 µM in the experiment on SK-OV-3 ovarian and 8.95 µM in the experiment with SN12C renal. Further, the TGI was 32.5 µM with A549 NSCLC; 5.85 µM with CAKI-1 renal; 75.9 µM with EKVX NSCLC; more than 100 µM with M14 melanoma; more than 100 µM in the experiment with NCI-H460 lung; 57.8 µM in the experiment with OVCAR-8 ovarian. The TGI was 62.1 µM in the experiment on SF-268 CNS, 31.3 µM with SK-OV-3 ovarian and more than 100 µM in the experiment with SN12C renal.
On to `C[C@H]1COC2(c3ccccc3)CCC(=O)N12` (some centres not stated), for which the TGI with A549 NSCLC, with CAKI-1 renal, in the experiment on CCRF-CEM leukemia, in the experiment on EKVX NSCLC, with NCI-H460 lung and in the experiment with OVCAR-8 ovarian was more than 100 µM in each case. Also, the TGI in the experiment with SF-268 CNS and with SN12C renal was more than 100 µM throughout.

The values are drawn from PubChem BioAssay (NCI).
